Measured values: patent publication US12404241B2 (Celgene Corporation, priority 2018, dated 2025)
Structures can show the parent of a compound that is named as a salt.

Molecular target: T1, AR (Homo sapiens, UniProt P10275)
T1 construct: endogenous in cells; host or cells: VCaP cells
T1 sequence (P10275 1-920): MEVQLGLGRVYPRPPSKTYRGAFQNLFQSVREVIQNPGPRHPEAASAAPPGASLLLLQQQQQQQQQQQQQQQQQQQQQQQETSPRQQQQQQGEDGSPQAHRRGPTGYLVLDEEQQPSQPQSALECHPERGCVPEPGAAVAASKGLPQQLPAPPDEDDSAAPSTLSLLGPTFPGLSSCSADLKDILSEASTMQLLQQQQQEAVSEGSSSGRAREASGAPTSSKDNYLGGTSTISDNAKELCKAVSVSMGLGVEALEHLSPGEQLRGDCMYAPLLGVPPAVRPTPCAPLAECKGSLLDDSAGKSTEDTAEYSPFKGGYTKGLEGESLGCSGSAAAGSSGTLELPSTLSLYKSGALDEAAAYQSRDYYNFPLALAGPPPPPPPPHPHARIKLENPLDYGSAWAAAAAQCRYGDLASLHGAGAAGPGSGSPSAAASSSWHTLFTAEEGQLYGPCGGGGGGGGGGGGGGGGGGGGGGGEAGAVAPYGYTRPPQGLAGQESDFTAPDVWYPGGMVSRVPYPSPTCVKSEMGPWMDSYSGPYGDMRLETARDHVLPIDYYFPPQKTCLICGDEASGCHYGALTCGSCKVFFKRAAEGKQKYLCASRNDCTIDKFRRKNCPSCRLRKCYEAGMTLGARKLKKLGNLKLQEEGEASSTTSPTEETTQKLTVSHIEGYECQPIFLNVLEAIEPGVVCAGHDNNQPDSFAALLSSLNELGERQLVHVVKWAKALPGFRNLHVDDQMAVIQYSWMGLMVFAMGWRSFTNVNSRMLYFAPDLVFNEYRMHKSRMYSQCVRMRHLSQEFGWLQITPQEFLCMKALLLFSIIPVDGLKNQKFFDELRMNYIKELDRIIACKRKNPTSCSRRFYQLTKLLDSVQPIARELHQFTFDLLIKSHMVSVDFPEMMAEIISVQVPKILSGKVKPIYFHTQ
Assay: VCAP AR Degradation Assay
Type: cell-based
Settings: for Y (AR degradation efficiency, % of DMSO control): class symbols *; for DC50: class symbols A-C, read-out: DC50
Procedure, shortened: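 AR protein in lysates quantified by sandwich ELISA after 24 h exposure of VCaP cells at 37 °C to 10 concentrations (1:3 steps, 5 μM top, final). Four-parameter logistic fit of percent-of-DMSO levels gave DC50 (50% degradation), EC50 and minimal AR level Y.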

SMILES	Y (AR degradation efficiency, % of DMSO control)	DC50 [nM]
CCc1cc(N2C(=S)N(c3cnc(C#N)c(C(F)(F)F)c3)C(=O)C2(C)C)ccc1O[C@@H](C)CN1C[C@@H](C)N(CC(=O)Nc2cccc(NC3CCC(=O)NC3=O)c2)[C@@H](C)C1 (single isomer, unassigned) [Example 240]	** (25%<Y<=35%)	100 to 500
CCc1cc(N2C(=S)N(c3cnc(C#N)c(C(F)(F)F)c3)C(=O)C23CCC3)ccc1OCCN1CCN(CC(=O)Nc2cc(Cl)cc(NC3CCC(=O)NC3=O)c2)CC1 (centres unmarked) [Example 85, N-(3-chloro-5-(2,6-dioxopiperidin-3-ylamino)phenyl)-2-(4-(2-(4-(7-(6-cyano-5-(trifluoromethyl)pyridin-3-yl)-8-oxo-6-thioxo-5,7-diazaspiro[3.4]octan-5-yl)-2-ethylphenoxy)ethyl)piperazin-1-yl)acetamide]	* (0<Y<=25%)	< 100
CC(C)c1cc(N2C(=S)N(c3cnc(C#N)c(C(F)(F)F)c3)C(=O)C2(C)C)ccc1OCCN1C[C@@H](C)N(CC(=O)Nc2cccc(NC3CCC(=O)NC3=O)c2)C[C@H]1C (stereo partly drawn) [Example 192, 2-((2R,5R)-4-(2-(4-(3-(6-cyano-5-(trifluoromethyl)pyridin-3-yl)-5,5-dimethyl-4-oxo-2-thioxoimidazolidin-1-yl)-2-isopropylphenoxy)ethyl)-2,5-dimethylpiperazin-1-yl)-N-(3-(2,6-dioxopiperidin-3-ylamino)phenyl)acetamide]	** (25%<Y<=35%)	100 to 500
CC(C)c1cc(N2C(=S)N(c3cnc(C#N)c(C(F)(F)F)c3)C(=O)C23CCC3)ccc1OCCN1C[C@@H](C)N(CC(=O)Nc2cc(Cl)cc(NC3CCC(=O)NC3=O)c2)[C@@H](C)C1 (stereo partly drawn) [Example 195, N-(3-chloro-5-(2,6-dioxopiperidin-3-ylamino)phenyl)-2-((2S,6R)-4-(2-(4-(7-(6-cyano-5-(trifluoromethyl)pyridin-3-yl)-8-oxo-6-thioxo-5,7-diazaspiro[3.4]octan-5-yl)-2-isopropylphenoxy)ethyl)-2,6-dimethylpiperazin-1-yl)acetamide]	* (0<Y<=25%)	< 100
CCc1cc(N2C(=S)N(c3ccc(C#N)c(C(F)(F)F)c3)C(=O)C2(C)C)ccc1OCCN1CCN(CC(=O)Nc2cccc(N[C@@H]3CCC(=O)NC3=O)c2)CC1 [Example 28, hydrochloride]	* (0<Y<=25%)	< 100
CCc1cc(N2C(=S)N(c3cnc(C#N)c(C(F)(F)F)c3)C(=O)C2(C)C)ccc1OCCN1CCN(CC(=O)Nc2cc(NC3CCC(=O)NC3=O)ccc2F)CC1 (centres unmarked) [Example 64, 2-(4-(2-(4-(3-(6-cyano-5-(trifluoromethyl)pyridin-3-yl)-5,5-dimethyl-4-oxo-2-thioxoimidazolidin-1-yl)-2-ethylphenoxy)ethyl)piperazin-1-yl)-N-(5-(2,6-dioxopiperidin-3-ylamino)-2-fluorophenyl)acetamide]	* (0<Y<=25%)	< 100
CCc1cc(N2C(=S)N(c3ccc(C#N)c(C(F)(F)F)c3)C(=O)C23CCCCC3)ccc1OCCN1C[C@@H](C)N(CC(=O)Nc2cccc(NC3CCC(=O)NC3=O)c2)[C@@H](C)C1 (stereo partly drawn) [Example 264, 2-((2S,6R)-4-(2-(4-(3-(4-cyano-3-(trifluoromethyl)phenyl)-4-oxo-2-thioxo-1,3-diazaspiro[4.5]decan-1-yl)-2-ethylphenoxy)ethyl)-2,6-dimethylpiperazin-1-yl)-N-(3-(2,6-dioxopiperidin-3-ylamino)phenyl)acetamide]	* (0<Y<=25%)	< 100
CC1(C)C(=O)N(c2ccc(C#N)c(C(F)(F)F)c2)C(=S)N1c1ccc(OCCN2CCN(CC(=O)Nc3cccc(NC4CCC(=O)NC4=O)c3)CC2)c(C2CC2)c1 (centres unmarked) [Example 9, hydrochloride]	* (0<Y<=25%)	< 100
C[C@@H]1CN(CCOc2ccc(N3C(=S)N(c4cnc(C#N)c(C(F)(F)F)c4)C(=O)C34CCC4)cc2C2CC2)C[C@H](C)N1CC(=O)Nc1cc(F)cc(NC2CCC(=O)NC2=O)c1 (stereo partly drawn) [Example 218, 2-((2S,6R)-4-(2-(4-(7-(6-cyano-5-(trifluoromethyl)pyridin-3-yl)-8-oxo-6-thioxo-5,7-diazaspiro[3.4]octan-5-yl)-2-cyclopropylphenoxy)ethyl)-2,6-dimethylpiperazin-1-yl)-N-(3-(2,6-dioxopiperidin-3-ylamino)-5-fluorophenyl)acetamide]	* (0<Y<=25%)	< 100
CCc1cc(N2C(=S)N(c3ccc(C#N)c(C(F)(F)F)c3)C(=O)C2(C)C)ccc1CCCN1CCN(CC(=O)Nc2cccc(NC3CCC(=O)NC3=O)c2)[C@@H](C)C1 (stereo partly drawn) [Example 279, 2-((S)-4-(3-(4-(3-(4-cyano-3-(trifluoromethyl)phenyl)-5,5-dimethyl-4-oxo-2-thioxoimidazolidin-1-yl)-2-ethylphenyl)propyl)-2-methylpiperazin-1-yl)-N-(3-(2,6-dioxopiperidin-3-ylamino)phenyl)acetamide]	* (0<Y<=25%)	< 100
C[C@@H]1CN(CCOc2ccc(N3C(=S)N(c4ccc(C#N)c(C(F)(F)F)c4)C(=O)C3(C)C)cc2Cl)CCN1CC(=O)Nc1cccc(NC2CCC(=O)NC2=O)c1 (stereo partly drawn) [Example 276, 2-((R)-4-(2-(2-chloro-4-(3-(4-cyano-3-(trifluoromethyl)phenyl)-5,5-dimethyl-4-oxo-2-thioxoimidazolidin-1-yl)phenoxy)ethyl)-2-methylpiperazin-1-yl)-N-(3-(2,6-dioxopiperidin-3-ylamino)phenyl)acetamide]	* (0<Y<=25%)	< 100
CCc1cc(N2C(=S)N(c3cnc(C#N)c(C(F)(F)F)c3)C(=O)C2(C)C)ccc1OCCN1CCN(CC(=O)Nc2cc(C#N)cc(NC3CCC(=O)NC3=O)c2)[C@H](C)C1 (stereo partly drawn) [Example 155, N-(3-cyano-5-(2,6-dioxopiperidin-3-ylamino)phenyl)-2-((R)-4-(2-(4-(3-(6-cyano-5-(trifluoromethyl)pyridin-3-yl)-5,5-dimethyl-4-oxo-2-thioxoimidazolidin-1-yl)-2-ethylphenoxy)ethyl)-2-methylpiperazin-1-yl)acetamide]	* (0<Y<=25%)	< 100
CCc1cc(N2C(=S)N(c3ccc(C#N)c(C(F)(F)F)c3)C(=O)C2(C)C)ccc1OCCN1CCN([C@@H](C)C(=O)Nc2cccc(NC3CCC(=O)NC3=O)c2)[C@H](C)C1 (stereo partly drawn) [Example 281, (2S)-2-((R)-4-(2-(4-(3-(4-cyano-3-(trifluoromethyl)phenyl)-5,5-dimethyl-4-oxo-2-thioxoimidazolidin-1-yl)-2-ethylphenoxy)ethyl)-2-methylpiperazin-1-yl)-N-(3-(2,6-dioxopiperidin-3-ylamino)phenyl)propanamide]	* (0<Y<=25%)	< 100
CCc1cc(N2C(=S)N(c3ccc(C#N)c(C(F)(F)F)c3)C(=O)C2(C)C)ccc1CCCN1C[C@@H](C)N(CC(=O)Nc2cccc(NC3CCC(=O)NC3=O)c2)[C@@H](C)C1 (stereo partly drawn) [Example 284, 2-((2R,6S)-4-(3-(4-(3-(4-cyano-3-(trifluoromethyl)phenyl)-5,5-dimethyl-4-oxo-2-thioxoimidazolidin-1-yl)-2-ethylphenyl)propyl)-2,6-dimethylpiperazin-1-yl)-N-(3-(2,6-dioxopiperidin-3-ylamino)phenyl)acetamide]	* (0<Y<=25%)	< 100
CCc1cc(N2C(=S)N(c3ccc(C#N)c(C(F)(F)F)c3)C(=O)C2(C)C)ccc1OCCN1CCN([C@@H](C)C(=O)Nc2cccc(NC3CCC(=O)NC3=O)c2)[C@@H](C)C1 (stereo partly drawn) [Example 275, (2S)-2-((S)-4-(2-(4-(3-(4-cyano-3-(trifluoromethyl)phenyl)-5,5-dimethyl-4-oxo-2-thioxoimidazolidin-1-yl)-2-ethylphenoxy)ethyl)-2-methylpiperazin-1-yl)-N-(3-(2,6-dioxopiperidin-3-ylamino)phenyl)propanamide]	* (0<Y<=25%)	< 100
CC1(C)C(=O)N(c2cnc(C#N)c(C(F)(F)F)c2)C(=S)N1c1ccc(OCCN2CCN(CC(=O)Nc3cc(Cl)cc(NC4CCC(=O)NC4=O)c3)CC2)c(CO)c1 (centres unmarked) [Example 91, N-(3-chloro-5-(2,6-dioxopiperidin-3-ylamino)phenyl)-2-(4-(2-(4-(3-(6-cyano-5-(trifluoromethyl)pyridin-3-yl)-5,5-dimethyl-4-oxo-2-thioxoimidazolidin-1-yl)-2-(hydroxymethyl)phenoxy)ethyl)piperazin-1-yl)acetamide]	*** (35%<Y<50%)	< 100
